Measurements published in paper PMC8230565, “Bisavenathramide Analogues as Nrf2 Inductors and Neuroprotectors in In Vitro Models of Oxidative Stress and Hyperphosphorylation” (Antioxidants, 2021).
“Also recorded” adds a separate entry of the source.

Experiments:
Format in all cases: cell-based
[1] = tested on: HO-1; test: HO-1 immunofluorescence in SH-SY5Y cells treated with okadaic acid; details: 10 µM, OA 20 nM, 8 h
Experimental: AREc32 or SH-SY5Y cells were seeded in 24 multiwell plates (40,000 or 100,000 cells per well, respectively) on poly-D-Lysine coated crystal slides. AREc32 cells were incubated for 1 h with the compounds under assay, and were then fixed by treatment with a 4% solution of paraformaldehyde in PBS for 15 min, followed by three washings with PBS in 5 min intervals. SH-SY5Y cells were treated with compounds during 24 h, and then co-incubated with medium (basal), okadaic acid (OA, 20 nM), or OA plus compound 3i (10 μM). Thereafter, cells were permeabilized by treatment with 0.5% Triton X-100 for 5 min, followed by three washings with PBS, and were incubated overnight with primary antibody anti-Nrf2 (ARE, 1:50, A-10, sc-365949, Santa Cruz Biotechnology, Dallas, TX, USA), anti-pTau AT8 (1:400, MN1020, Thermofisher, Madrid, Spain), and anti-HO-1 (1:400, Ab13243, Abcam, Madrid, Spain). After three washes with PBS, the cells were incubated with secondary antibodies (1:800, 1 h). In order to visualize the nuclei, the cells were counterstained during the second wash with 5 μg·mL^−1 of Hoechst 33342 (Invitrogen, Madrid, Spain). […]
Finally, we evaluated the capacity of compound 3i to reduce tau hyperphosphorylation in the SH-SY5Y cellular line induced by okadaic acid (OA). […]

[2] = tested on: SH-SY5Y cells; test: Neuroprotection against rotenone/oligomycin A in SH-SY5Y cells (MTT); details: increasing concentrations; R/O 30/10 µM
[3] = tested on: SH-SY5Y cells; test: Superoxide production (DHE) in SH-SY5Y cells under R/O; details: 1 and 10 µM
Experimental: To evaluate superoxide production, we used the fluorescent dye dihydroethidium (DHE). SH-SY5Y cells were seeded in 96-well clear-bottom black plates (6 × 10^4 cells/well). After 24 h, cells were treated with compound 3i at the desired concentrations for 24 h. Thereafter, treatments were eliminated and cells were loaded with DHE (20 μM) for 45 min. […] Fluorescence was evaluated in a Nikon T1000 fluorescence microscope at 490/630 excitation/emission wavelengths, respectively. Images were quantitated using Fiji software, and data are expressed as the increase after 6 h exposure to ROS generator, normalized to basal conditions as 100% increase.
To further evaluate its mechanism of action, and considering the importance of exacerbated oxidative stress in neurodegenerative diseases, we evaluated its capacity to reduce free radical species production using the above-mentioned R/O toxic combination to generate ROS and measure the influence of 3i in the total ROS production by using the H2DCFDA dye, and also the specific superoxide production by using the selective dye dihydroetidium (DHE). […] This reduction might be related to a combination of direct scavenger effect and an increased expression of Nrf2-dependent antioxidant genes, such as HO-1.

COC(=O)C1=C(C)N(CCc2ccccc2)C(=O)/C1=C\c1ccc(O)c(O)c1 [Compound 3i, Methyl (Z)-4-(3,4-Dihydroxybenzylidene)-2-methyl-5-oxo-1-phenethyl-4,5-dihydro-1H-pyrrole-3-carboxylate]
increase of HO-1 levels compared to basal levels [1]: 46% | neuroprotective effect against rotenone/oligomycin A by concentration [2]: statistically significant neuroprotective effect at 0.1 and 1 µM; also recorded: this activity was lost at 10 µM | superoxide production (DHE) [3]: reduce superoxide production at both concentrations
